Data reported in PubChem BioAssay (NCI).
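Tested at 5 concentrations; 48 h exposure; 96-well plates; endpoints linearly interpolated, else capped at highest concentration. TGI: total growth inhibition.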

Tests used:
Assay in all cases: NCI-60 cell line screen, 48 h
TK-10 renal = system: TK-10 renal
M14 melanoma = system: M14 melanoma
NCI-H522 lung = system: NCI-H522 lung
OVCAR-4 ovarian = system: OVCAR-4 ovarian
LXFL 529 NSCLC = system: LXFL 529 NSCLC
SR leukemia = system: SR leukemia
A549 NSCLC = system: A549 NSCLC
NCI-H226 lung = system: NCI-H226 lung
HOP-62 NSCLC = system: HOP-62 NSCLC
ACHN renal = system: ACHN renal
SK-MEL-5 melanoma = system: SK-MEL-5 melanoma
HOP-92 NSCLC = system: HOP-92 NSCLC
SF-295 CNS = system: SF-295 CNS
SF-539 CNS = system: SF-539 CNS
HCC-2998 colon = system: HCC-2998 colon
EKVX NSCLC = system: EKVX NSCLC
M19-MEL melanoma = system: M19-MEL melanoma
CCRF-CEM leukemia = system: CCRF-CEM leukemia
RXF 393 renal = system: RXF 393 renal
KM12 colon = system: KM12 colon
786-0 renal = system: 786-0 renal
SW-620 colon = system: SW-620 colon
UACC-257 melanoma = system: UACC-257 melanoma
UO-31 renal = system: UO-31 renal
SN12C renal = system: SN12C renal
UACC-62 melanoma = system: UACC-62 melanoma
MOLT-4 leukemia = system: MOLT-4 leukemia
NCI-H460 lung = system: NCI-H460 lung
RXF-631 renal = system: RXF-631 renal
SF-268 CNS = system: SF-268 CNS
HT29 colon = system: HT29 colon
SK-OV-3 ovarian = system: SK-OV-3 ovarian
RPMI-8226 leukemia = system: RPMI-8226 leukemia
IGROV1 ovarian = system: IGROV1 ovarian
SK-MEL-28 melanoma = system: SK-MEL-28 melanoma
LOX IMVI melanoma = system: LOX IMVI melanoma
OVCAR-8 ovarian = system: OVCAR-8 ovarian
OVCAR-5 ovarian = system: OVCAR-5 ovarian
COLO 205 colon = system: COLO 205 colon
SNB-19 CNS = system: SNB-19 CNS
DLD-1 colon = system: DLD-1 colon
SNB-78 CNS = system: SNB-78 CNS
OVCAR-3 ovarian = system: OVCAR-3 ovarian
HOP-18 NSCLC = system: HOP-18 NSCLC
U251 CNS = system: U251 CNS
SNB-75 CNS = system: SNB-75 CNS
HCT-116 colon = system: HCT-116 colon
KM20L2 colon = system: KM20L2 colon
DMS 273 small cell lung = system: DMS 273 small cell lung
A498 renal = system: A498 renal
HCT-15 colon = system: HCT-15 colon
HL-60(TB) leukemia = system: HL-60(TB) leukemia
CAKI-1 renal = system: CAKI-1 renal
MALME-3M melanoma = system: MALME-3M melanoma
DMS 114 small cell lung = system: DMS 114 small cell lung
K-562 leukemia = system: K-562 leukemia

## Cc1cc(C(C)C)cc(O)c(=O)c1
TK-10 renal
  TGI: > 100 µM
M14 melanoma
  TGI: > 100 µM
NCI-H522 lung
  TGI: > 100 µM
OVCAR-4 ovarian
  TGI: > 100 µM
LXFL 529 NSCLC
  TGI: > 100 µM
SR leukemia
  TGI: > 100 µM
A549 NSCLC
  TGI: > 100 µM
NCI-H226 lung
  TGI: > 100 µM
HOP-62 NSCLC
  TGI: > 100 µM
ACHN renal
  TGI: > 100 µM
SK-MEL-5 melanoma
  TGI: > 100 µM
HOP-92 NSCLC
  TGI: > 100 µM
SF-295 CNS
  TGI: > 100 µM
SF-539 CNS
  TGI: > 100 µM
HCC-2998 colon
  TGI: > 100 µM
EKVX NSCLC
  TGI: > 100 µM
M19-MEL melanoma
  TGI: > 100 µM
CCRF-CEM leukemia
  TGI: > 100 µM
RXF 393 renal
  TGI: > 100 µM
KM12 colon
  TGI: > 100 µM
786-0 renal
  TGI: > 100 µM
SW-620 colon
  TGI: > 100 µM
UACC-257 melanoma
  TGI: > 100 µM
UO-31 renal
  TGI: > 100 µM
SN12C renal
  TGI: > 100 µM
UACC-62 melanoma
  TGI: > 100 µM
MOLT-4 leukemia
  TGI: > 100 µM
NCI-H460 lung
  TGI: > 100 µM
RXF-631 renal
  TGI: > 100 µM
SF-268 CNS
  TGI: > 100 µM
HT29 colon
  TGI: > 100 µM
SK-OV-3 ovarian
  TGI: > 100 µM
RPMI-8226 leukemia
  TGI: > 100 µM
IGROV1 ovarian
  TGI: > 100 µM
SK-MEL-28 melanoma
  TGI: > 100 µM
LOX IMVI melanoma
  TGI: > 100 µM
OVCAR-8 ovarian
  TGI: > 100 µM
OVCAR-5 ovarian
  TGI: > 100 µM
COLO 205 colon
  TGI: > 100 µM
SNB-19 CNS
  TGI: > 100 µM
DLD-1 colon
  TGI: > 100 µM
SNB-78 CNS
  TGI: > 100 µM
OVCAR-3 ovarian
  TGI: > 100 µM
HOP-18 NSCLC
  TGI: > 100 µM
U251 CNS
  TGI: > 100 µM
SNB-75 CNS
  TGI: > 100 µM
HCT-116 colon
  TGI: > 100 µM
KM20L2 colon
  TGI: > 100 µM
DMS 273 small cell lung
  TGI: > 100 µM
A498 renal
  TGI: > 100 µM
HCT-15 colon
  TGI: > 100 µM
HL-60(TB) leukemia
  TGI: > 100 µM
CAKI-1 renal
  TGI: > 100 µM
MALME-3M melanoma
  TGI: > 100 µM

## COc1ccc(C(O)c2cc(OC)c(OC)c(OC)c2)cc1 (stereo not given)
TK-10 renal
  TGI: > 100 µM
M14 melanoma
  TGI: 83.3 µM
NCI-H522 lung
  TGI: 35.5 µM
OVCAR-4 ovarian
  TGI: > 100 µM
LXFL 529 NSCLC
  TGI: > 100 µM
A549 NSCLC
  TGI: > 100 µM
NCI-H226 lung
  TGI: > 100 µM
HOP-62 NSCLC
  TGI: > 100 µM
ACHN renal
  TGI: > 100 µM
SK-MEL-5 melanoma
  TGI: 42.2 µM
HOP-92 NSCLC
  TGI: > 100 µM
SF-295 CNS
  TGI: 29.2 µM
SF-539 CNS
  TGI: 63.7 µM
EKVX NSCLC
  TGI: > 100 µM
M19-MEL melanoma
  TGI: > 100 µM
CCRF-CEM leukemia
  TGI: > 100 µM
RXF 393 renal
  TGI: 30.6 µM
DMS 114 small cell lung
  TGI: 37.5 µM
KM12 colon
  TGI: > 100 µM
786-0 renal
  TGI: > 100 µM
SW-620 colon
  TGI: > 100 µM
UACC-257 melanoma
  TGI: > 100 µM
UO-31 renal
  TGI: > 100 µM
SN12C renal
  TGI: > 100 µM
UACC-62 melanoma
  TGI: > 100 µM
MOLT-4 leukemia
  TGI: > 100 µM
NCI-H460 lung
  TGI: > 100 µM
RXF-631 renal
  TGI: > 100 µM
SF-268 CNS
  TGI: > 100 µM
HT29 colon
  TGI: > 100 µM
RPMI-8226 leukemia
  TGI: > 100 µM
IGROV1 ovarian
  TGI: > 100 µM
SK-MEL-28 melanoma
  TGI: > 100 µM
LOX IMVI melanoma
  TGI: > 100 µM
OVCAR-8 ovarian
  TGI: > 100 µM
OVCAR-5 ovarian
  TGI: > 100 µM
COLO 205 colon
  TGI: 26.4 µM
SNB-19 CNS
  TGI: > 100 µM
DLD-1 colon
  TGI: > 100 µM
SNB-78 CNS
  TGI: > 100 µM
OVCAR-3 ovarian
  TGI: 47 µM
HOP-18 NSCLC
  TGI: > 100 µM
U251 CNS
  TGI: > 100 µM
HCT-116 colon
  TGI: > 100 µM
DMS 273 small cell lung
  TGI: > 100 µM
K-562 leukemia
  TGI: > 100 µM
A498 renal
  TGI: > 100 µM
HCT-15 colon
  TGI: > 100 µM
HL-60(TB) leukemia
  TGI: 39.5 µM
CAKI-1 renal
  TGI: > 100 µM
MALME-3M melanoma
  TGI: > 100 µM
